{
  "source": "EPA's ToxRefDB 2",
  "key": {"rat [1]": {"tested_on": "rat", "details": "Carcinogenicity, fischer, Inhalation, Whole-Body, dose end: 104 week, group: systemic"}, "rat [2]": {"tested_on": "rat", "details": "Neurotoxicity screening battery; fischer; Inhalation; Whole-Body; dose end: 1 day; group: cannot be grouped; systemic / in life observation / clinical signs / abnormal gait + systemic / in life observation / clinical signs / body temperature + …"}, "rabbit [3]": {"tested_on": "rabbit", "details": "Prenatal developmental toxicity study; new zealand white; Oral; Gavage/Intubation; dose end: 18 GD; group: maternal; systemic / in life observation / body weight / body weight + systemic / in life observation / body weight / body weight gain + systemic / in…"}, "rat [4]": {"tested_on": "rat", "details": "Developmental neurotoxicity study; sprague dawley; Oral; Gavage/Intubation; dose end: 68 PND; group: cannot be grouped; systemic / in life observation / mortality / mortality"}, "rat [5]": {"tested_on": "rat", "details": "Subchronic inhalation toxicity, fischer, Whole-Body, dose end: 13 week, group: systemic"}, "rat [6]": {"tested_on": "rat", "details": "Prenatal developmental toxicity study, Sprague-Dawley, Oral, Gavage/Intubation, dose end: 15 GD"}, "mouse [7]": {"tested_on": "mouse", "details": "Subchronic inhalation toxicity, cd1, Whole-Body, dose end: 13 week, group: systemic"}, "dog": {"tested_on": "dog", "details": "Chronic toxicity, beagle, Oral, Feed, dose end: 12 month, group: systemic"}, "rat [8]": {"tested_on": "rat", "details": "Combined chronic toxicity/carcinogenicity, other, Oral, Feed, dose end: 24 month, group: systemic"}, "rat [9]": {"tested_on": "rat", "details": "Multigenerational reproductive toxicity study, sprague dawley, Oral, Feed, dose end: 2 generation"}, "mouse [10]": {"tested_on": "mouse", "details": "Carcinogenicity, cd1, Oral, Feed, dose end: 78 week, group: systemic"}, "rat [11]": {"tested_on": "rat", "details": "Subchronic oral toxicity in rodents, sprague dawley, Feed, dose end: 13 week, group: systemic"}, "rat [12]": {"tested_on": "rat", "details": "Subchronic oral toxicity in rodents, sprague dawley, Gavage/Intubation, dose end: 90 day, group: systemic"}, "rabbit [13]": {"tested_on": "rabbit", "details": "Subchronic dermal toxicity, new zealand white, Topical, dose end: 90 day, group: systemic, systemic / in life observation / clinical signs / erythema"}, "rat [14]": {"tested_on": "rat", "details": "Neurotoxicity screening battery; sprague dawley; Oral; Gavage/Intubation; dose end: 13 week; group: cannot be grouped; systemic / in life observation / body weight / body weight gain + systemic / in life observation / clinical signs / red or crusty deposits …"}, "[15]": {"details": "systemic / in life observation / body weight / body weight + systemic / in life observation / body weight / body weight gain + systemic / in…"}, "[16]": {"details": "systemic / pathology microscopic / testes / adenoma"}, "[17]": {"details": "systemic / in life observation / clinical signs / reduced activity"}, "[18]": {"details": "systemic / in life observation / clinical signs / reduced activity + systemic / hematology / erythrocyte (rbc) count differential / …"}, "[19]": {"details": "group: developmental, systemic / in life observation / body weight / fetal weight"}, "[20]": {"details": "group: maternal, systemic / in life observation / body weight / body weight gain + systemic / in life observation / mortality / mortality + systemic / organ …"}, "[21]": {"details": "systemic / pathology microscopic / liver / pigmentation"}, "[22]": {"details": "systemic / pathology microscopic / liver / pigmentation + systemic / pathology microscopic / liver / hypertrophy"}, "[23]": {"details": "systemic / organ weight / liver / absolute"}, "[24]": {"details": "group: offspring, systemic / in life observation / body weight / offspring (pup) weight"}, "[25]": {"details": "group: parental, systemic / in life observation / body weight / body weight"}, "[26]": {"details": "systemic / organ weight / liver / absolute + systemic / organ weight / liver / relative to body weight + systemic / pathology microscopic / …"}, "[27]": {"details": "systemic / pathology microscopic / kidney / mineralization"}, "[28]": {"details": "systemic / organ weight / liver / relative to body weight"}},
  "data": [
    {"molecule": "CC(C)O", "note": "[Isopropanol]", "values": [
      {"measurement": "LOAEL", "setting": "rat [1]; [15]", "result": 2500, "unit": "ppm"},
      {"measurement": "NOAEL", "setting": "rat [1]; [15]", "result": 500, "unit": "ppm"},
      {"measurement": "LEL", "setting": "rat [1]; [16]", "result": 500, "unit": "ppm"},
      {"measurement": "NEL", "setting": "rat [1]; [16]", "result": "< 500", "unit": "ppm"},
      {"measurement": "LEL", "setting": "rat [2]", "result": 5000, "unit": "ppm"},
      {"measurement": "LOAEL", "setting": "rat [2]", "result": "> 10000", "unit": "ppm"},
      {"measurement": "NEL", "setting": "rat [2]", "result": 1500, "unit": "ppm"},
      {"measurement": "NOAEL", "setting": "rat [2]", "result": "≥ 10000", "unit": "ppm"},
      {"measurement": "LEL", "setting": "rabbit [3]", "result": 480, "unit": "mg/kg/day"},
      {"measurement": "LOAEL", "setting": "rabbit [3]", "result": "> 480", "unit": "mg/kg/day"},
      {"measurement": "NEL", "setting": "rabbit [3]", "result": 240, "unit": "mg/kg/day"},
      {"measurement": "NOAEL", "setting": "rabbit [3]", "result": "≥ 480", "unit": "mg/kg/day"},
      {"measurement": "LEL", "setting": "rat [4]", "result": 1200, "unit": "mg/kg/day"},
      {"measurement": "LOAEL", "setting": "rat [4]", "result": 1200, "unit": "mg/kg/day"},
      {"measurement": "NEL", "setting": "rat [4]", "result": 700, "unit": "mg/kg/day"},
      {"measurement": "NOAEL", "setting": "rat [4]", "result": 700, "unit": "mg/kg/day"},
      {"measurement": "LEL", "setting": "rat [5]; [17]", "result": 500, "unit": "ppm"},
      {"measurement": "NEL", "setting": "rat [5]; [17]", "result": "< 500", "unit": "ppm"},
      {"measurement": "LOAEL", "setting": "rat [5]; [18]", "result": "> 5000", "unit": "ppm"},
      {"measurement": "NOAEL", "setting": "rat [5]; [18]", "result": "≥ 5000", "unit": "ppm"},
      {"measurement": "LEL", "setting": "rat [6]; [19]", "result": 800, "unit": "mg/kg/day"},
      {"measurement": "LOAEL", "setting": "rat [6]; [19]", "result": "> 1200", "unit": "mg/kg/day"},
      {"measurement": "NEL", "setting": "rat [6]; [19]", "result": 400, "unit": "mg/kg/day"},
      {"measurement": "NOAEL", "setting": "rat [6]; [19]", "result": "≥ 1200", "unit": "mg/kg/day"},
      {"measurement": "LOAEL", "setting": "rat [6]; [20]", "result": "> 1200", "unit": "mg/kg/day"},
      {"measurement": "NEL", "setting": "rat [6]; [20]", "result": 400, "unit": "mg/kg/day"},
      {"measurement": "NOAEL", "setting": "rat [6]; [20]", "result": "≥ 1200", "unit": "mg/kg/day"},
      {"measurement": "LEL", "setting": "rat [6]; group: maternal, systemic / in life observation / mortality / mortality", "result": 800, "unit": "mg/kg/day"},
      {"measurement": "LOAEL", "setting": "mouse [7]; [15]", "result": "> 5000", "unit": "ppm"},
      {"measurement": "NEL", "setting": "mouse [7]; [15]", "result": 500, "unit": "ppm"},
      {"measurement": "NOAEL", "setting": "mouse [7]; [15]", "result": "≥ 5000", "unit": "ppm"},
      {"measurement": "LEL", "setting": "mouse [7]; systemic / in life observation / clinical signs / ataxia + systemic / in life observation / clinical signs / lethargy + systemic / in life …", "result": 1500, "unit": "ppm"}
    ]},
    {"molecule": "CCCCC(CC)CN1C(=O)C2C3C=CC(C3)C2C1=O", "note": "(stereo unspecified) [MGK-264]", "values": [
      {"measurement": "NEL", "setting": "dog; [21]", "result": 7.5, "unit": "mg/kg/day"},
      {"measurement": "NOAEL", "setting": "dog; [21]", "result": 7.5, "unit": "mg/kg/day"},
      {"measurement": "LEL", "setting": "dog; [22]", "result": 33.7, "unit": "mg/kg/day"},
      {"measurement": "LOAEL", "setting": "dog; [22]", "result": 33.7, "unit": "mg/kg/day"},
      {"measurement": "LEL", "setting": "rat [8]; [23]", "result": 50, "unit": "mg/kg/day"},
      {"measurement": "NEL", "setting": "rat [8]; [23]", "result": "< 50", "unit": "mg/kg/day"},
      {"measurement": "NOAEL", "setting": "rat [8]; systemic / pathology microscopic / liver / hypertrophy + systemic / pathology microscopic / liver / proliferation + systemic / in life …", "result": 50, "unit": "mg/kg/day"},
      {"measurement": "LOAEL", "setting": "rat [8]; systemic / pathology microscopic / liver / hypertrophy + systemic / pathology microscopic / liver / proliferation + systemic / organ weight…", "result": 150, "unit": "mg/kg/day"},
      {"measurement": "LEL", "setting": "rat [9]; [24]", "result": 61, "unit": "mg/kg/day"},
      {"measurement": "LOAEL", "setting": "rat [9]; [24]", "result": 61, "unit": "mg/kg/day"},
      {"measurement": "NEL", "setting": "rat [9]; [24]", "result": "< 61", "unit": "mg/kg/day"},
      {"measurement": "NOAEL", "setting": "rat [9]; [24]", "result": "< 61", "unit": "mg/kg/day"},
      {"measurement": "LEL", "setting": "rat [9]; [25]", "result": 61, "unit": "mg/kg/day"},
      {"measurement": "NEL", "setting": "rat [9]; [25]", "result": "< 61", "unit": "mg/kg/day"},
      {"measurement": "LOAEL", "setting": "mouse [10]; [26]", "result": 396, "unit": "mg/kg/day"},
      {"measurement": "NOAEL", "setting": "mouse [10]; [26]", "result": 49.5, "unit": "mg/kg/day"},
      {"measurement": "LEL", "setting": "mouse [10]; [27]", "result": 49.5, "unit": "mg/kg/day"},
      {"measurement": "NEL", "setting": "mouse [10]; [27]", "result": "< 49.5", "unit": "mg/kg/day"},
      {"measurement": "LOAEL", "setting": "rat [11]; systemic / organ weight / liver / absolute + systemic / organ weight / liver / relative to body weight", "result": 260, "unit": "mg/kg/day"},
      {"measurement": "NOAEL", "setting": "rat [11]; systemic / organ weight / liver / absolute + systemic / organ weight / liver / relative to body weight + systemic / clinical chemistry / …", "result": 130, "unit": "mg/kg/day"},
      {"measurement": "LEL", "setting": "rat [11]; [28]", "result": 140, "unit": "mg/kg/day"},
      {"measurement": "NEL", "setting": "rat [11]; [28]", "result": "< 140", "unit": "mg/kg/day"}
    ]},
    {"molecule": "CN(C)C(=S)[S-].[Na+]", "note": "[Sodium dimethyldithiocarbamate]", "values": [
      {"measurement": "LOAEL", "setting": "rat [12]; systemic / clinical chemistry / alkaline phosphatase (alp/alk) / alkaline phosphatase (alp/alk) + systemic / clinical chemistry / glucose / …", "result": 250, "unit": "mg/kg/day"},
      {"measurement": "LEL", "setting": "rat [12]; [28]", "result": 0.5, "unit": "mg/kg/day"},
      {"measurement": "NEL", "setting": "rat [12]; [28]", "result": "< 0.5", "unit": "mg/kg/day"},
      {"measurement": "NOAEL", "setting": "rat [12]; systemic / organ weight / liver / relative to body weight + systemic / clinical chemistry / alkaline phosphatase (alp/alk) / alkaline …", "result": 5, "unit": "mg/kg/day"},
      {"measurement": "LEL", "setting": "rabbit [13]", "result": 50, "unit": "mg/kg/day"},
      {"measurement": "LOAEL", "setting": "rabbit [13]", "result": 50, "unit": "mg/kg/day"},
      {"measurement": "NEL", "setting": "rabbit [13]", "result": "< 50", "unit": "mg/kg/day"},
      {"measurement": "NOAEL", "setting": "rabbit [13]", "result": "< 50", "unit": "mg/kg/day"},
      {"measurement": "LEL", "setting": "rat [14]", "result": 250, "unit": "mg/kg/day"},
      {"measurement": "LOAEL", "setting": "rat [14]", "result": 250, "unit": "mg/kg/day"},
      {"measurement": "NEL", "setting": "rat [14]", "result": 5, "unit": "mg/kg/day"},
      {"measurement": "NOAEL", "setting": "rat [14]", "result": 5, "unit": "mg/kg/day"}
    ]}
  ]
}
